Experimental findings from article PMC6691347, “Design and Development of a Novel Peptide for Treating Intestinal Inflammation” (Frontiers in Immunology, 2019) are described below.

For data set [1], the system named is LPS-induced intestinal inflammation. Nature of the data set: LPS-induced intestinal inflammation murine model. It counts as in vivo, C57/BL6 male mice. Here is the method:
Seventy-two C57/BL6 male mice (6–8 weeks of age) were purchased from Charles River (Beijing, China). Mice were maintained in a specific pathogen free (SPF) environment at 22 ± 1°C with relative 55 ± 10% humidity, and the assays were performed in conformity with the laws and regulations for live animal treatment at China Agricultural University.
The mice were randomly distributed into six groups (n = 12 each): control, LPS (E. coli, O111:B4, Sigma-Aldrich, USA) treatment, LL-37 pretreatment followed by LPS treatment (LL-37 + LPS), Tα1 pretreatment followed by LPS treatment (Tα1 + LPS), LTA pretreatment followed by LPS treatment (LTA + LPS). Different peptides (10 mg/kg mouse weight) were injected intraperitoneally once daily for 7 days, whereas an equal volume of sterile saline was injected intraperitoneally to the control and LPS-treated groups. On day 7, mice in LPS, LL-37 + LPS, Tα1 + LPS, and LTA + LPS groups were intraperitoneally injected with LPS (10 mg/kg mouse weight) 1h after saline or the peptides treatment, and the control group was intraperitoneally injected with an equal volume of saline. The mice were then euthanized by cervical dislocation 6 h after intraperitoneal injection of LPS or saline, and samples of the intestines were collected for analysis. The body weights of the mice were recorded before and after the experiment.
Intestinal tissues samples from the jejunum were fixed in 4% paraformaldehyde immediately after the mice were euthanized. After embedding, the tissues were sectioned (5 μm) using an RM2235 microtome (Leica) and stained with hematoxylin-eosin (H&E). Images were acquired using a DM3000 microscope. LPS-induced intestinal injury was evaluated using Chiu's score ([43]) according to changes of the villus and glands of the jejunal mucosa. Villus height and crypt depth were measured using CaseViewer software.
For immunohistochemical analysis of CD177^+, nonspecific binding sites were blocked with PBS containing 1% w/v BSA for 1 h. Anti-CD177^+ antibodies (Santa, USA) were added at a dilution of 1:100 and incubated overnight at 4°C. Samples were washed five times in PBS and treated with horse-radish peroxidase (HRP)-conjugated rabbit anti-goat IgG (JIR, USA) at ratio of 1:100; samples were left to incubate at 4°C for 1 h. After washing with PBS, 3,3′-diaminobenzidine (DAB; DAKO, USA) was added, and the slides were counterstained with Harris hematoxylin. Finally, the samples were dehydrated in an alcohol gradient (70–100%), and cleared in xylene. All slides were mounted in neutral balsam.
The apoptotic cells in the jejunal sections were detected via a commercial the terminal deoxynucleotidyl transferase mediated dUTP nick end labeling (TUNEL) staining kit according to the manufacturer's instruction (Roche, Indianapolis, IN, USA). The sections were co-stained with the DAPI (Servicebio, Wuhan, China). The number of apoptotic cells was counted in four to six randomly selected fields at 200 × magnification.
(§1) RAW264.7 cells were treated with or without 10 μg/mL peptides for 1h before the addition of 100 ng/mL LPS and further incubation for 12 h at 37°C. Levels of tumor necrosis factor-alpha (TNF-α), interleukin-6 (IL-6), and IL-1β were detected in culture supernatant and jejunum, respectively. In addition, the level of interferon-gamma (IFN-γ) was detected in the jejunum. ELISA was performed using a commercial ELISA kit (eBioscience, San Diego, USA).
The activities of myeloperoxidase (MPO) in the jejunum were detected using ELISA kits (Boster Wuhan, China) according to the manufacturer's instructions.
Whole protein of intestinal tissues was obtained with the whole protein extraction kit (KeyGEN Biotech, Nanjing, China) according to the manufacturer's instructions. The protein concentration was measured via the BCA kit (KeyGEN Biotech, Nanjing, China). […]

Another data set concerns RAW264.7 cells. Nature of the data set: Cell viability assay (CCK-8). It counts as cell-based, Mouse. The note with it: for cytotoxic activity on RAW264.7 macrophage cells: CCK-8, 24 h, among selected hybrid peptides and their parental peptides; for cell viability: RAW264.7 cells, lower doses of peptide, 24 h, CCK-8, OD450, 8 biological replicates. On the procedure: The viability of peptide-treated RAW264.7 cells was determined using the Cell Counting Kit-8 (CCK-8) Assay Kit (Dojindo) ([42]). RAW264.7 cells were pre-seeded on a 96-well plate at a density of 3 × 10^4 cells/mL in 100 μL DMEM medium overnight. The cells were either treated with various concentrations of peptides or without peptides at 37°C and 5% CO2 for 24 h. Each well was incubated with 10 μL CCK-8 solution for 4 h in the darkness. Then, the absorbance at 450 nm was measured using a microplate reader. Cell viability was calculated as:
Cell viability (%)=(OD450 (sample)/OD450(control))×100%
where OD450(sample) is the absorbance at 450 nm of the cells with peptides treated and OD450(control) is the absorbance at 450 nm of the cells without peptides treated.

The nature of data set [2]: Neutralization of LPS, Chromogenic End-point Tachypleus Amebocyte Lysate (CE TAL) assay. It counts as biochemical, E. coli. On the procedure:
The neutralization of LPS by the peptides was assessed using a quantitative Chromogenic End-point Tachypleus Amebocyte Lysate (CE TAL) assay via the QCL-1000 kit (Xiamen, China). A constant concentration of LPS (1.0 EU/mL final concentration; E. coli, O111:B4, Sigma-Aldrich, USA) was incubated with various concentrations of the peptides or polymyxin B (PMB) (0–64 μg/mL final concentration; Sigma-Aldrich, USA) at 37°C for 15 min in the wells of […] sterile microliters plates. The 100 μL aliquots concentrate of limulus amebocyte lysate reagent was added and incubated at 37°C for 6 min. On the addition of chromogenic substrate, yellow color appeared. The reactions were stopped by adding 25% HCl, and then the absorbances measured at 540 nm ([45]).

In data set [3] the test system is LPS-stimulated RAW264.7 cells. Nature of the data set: ELISA of cytokine release from LPS-stimulated RAW264.7 cells. It counts as cell-based, Mouse. The conditions noted are these: RAW264.7, 10 μg/mL peptide 1 h before 100 ng/mL LPS, 12 h, ELISA of supernatant; compared to the other tested peptides; n = 3. On the procedure:
as §1
Background: An ELISA detects its analyte on a solid surface through an enzyme-linked reagent.

[4] abbreviates: ELISA, peptide 10 mg/kg i.p. pretreatment, LPS 10 mg/kg, LTA compared to Tα1- or LL-37-pretreated groups, n = 12.
[5] abbreviates: jejunal tissues, western blot, LTA pretreatment vs LPS, n = 3.
[6] abbreviates: jejunum, western blot, LTA 10 mg/kg i.p. pretreatment, LPS 10 mg/kg.

As to “IGKEFKRIVQRIKDFLRNLVPRTEKEKKEVVE [LTA, hybrid peptide LL-37-Tα1]”, the “plasma LPS level” value in data set [1] (CE TAL test of mouse plasma, LTA 10 mg/kg i.p. pretreatment, LPS 10 mg/kg) is reported as “significantly reduced the plasma LPS level”. The “MPO activity in the jejunum” value in data set [1] (ELISA kit, peptide 10 mg/kg i.p. pretreatment, LPS 10 mg/kg, compared to the LPS-treated group, n = 12) is on record as “markedly decreased MPO activity”. In addition, in data set [1] (setting [4]), the “IFN-γ concentration in the jejunum” value is “significantly lower”, the “IL-1β concentration in the jejunum” value is reported as “significantly lower”, the “IL-6 concentration in the jejunum” value was “significantly lower” and the “TNF-α concentration in the jejunum” value is reported as “significantly lower”. The “infiltration of CD177+ neutrophils into jejunal tissue” value in data set [1] (immunohistochemistry, peptide 10 mg/kg i.p. pretreatment, LPS 10 mg/kg) is “reduced this effect to the basal level”. Also, the “apoptosis index (TUNEL staining)” value in data set [1] (jejunal sections, peptide 10 mg/kg i.p. pretreatment, LPS 10 mg/kg, compared to the LPS-treated group) is “significantly reduced the apoptosis index”. Besides, in data set [1] (setting [5]), the “phosphorylation of IKK-β” value is on record as “decreased”, the “phosphorylation of IκB-α” value is “decreased” and the “phosphorylation of NF-κB” value is reported as “decreased”. The “Chiu's score” value in data set [1] (jejunum H&E, mice, peptide 10 mg/kg i.p. once daily for 7 days, LPS 10 mg/kg i.p., 6 h after LPS, LPS group 3.33 ± 0.58, mean ± SD) is 0.67 ± 0.58. In data set [1] (setting [6]), the “expression of Occludin” value is listed as “significantly higher than that in the LPS-group” and the “expression of ZO-1” value is listed as “significantly higher than that in the LPS-group”. The “villus height to crypt depth (V/C) ratio” value in data set [1] (jejunum, mice, peptide 10 mg/kg i.p. once daily for 7 days, LPS 10 mg/kg i.p., 6 h after LPS, LPS group 2.35 ± 0.389, mean ± SD) is recorded as 4.19 ± 0.364. Besides, the “body weight (weight loss after LPS)” value in data set [1] (mice, peptide 10 mg/kg i.p. once daily, then LPS 10 mg/kg i.p. 1 h after last dose, n = 12) is given as “recovered their weight loss rapidly”. Besides, in the data set on RAW264.7 cells, the “cytotoxic activity on RAW264.7 macrophage cells” value was “lowest cytotoxic activity” and the cell viability result was “greater than 100%”. In data set [2] (LPS 1.0 EU/mL, 37°C 15 min, CE TAL, n = 3), the “concentration that completely neutralizes LPS” value was ≥ 8 µg/mL. Moreover, in data set [2] (LPS 1.0 EU/mL, peptide 0–64 μg/mL, 37°C 15 min, n = 3), the “inhibition of the activation of tachypleus amebocyte lysate (LPS neutralization)” value was “dose-dependent manner”. Further, the “concentration that almost completely neutralizes LPS” value in data set [2] (in vitro, CE TAL, statement of the discussion) came to 8 µg/mL. Further, in data set [3], the “release of IL-1β” value is recorded as “remarkable decrease”, the “release of IL-6” value is on record as “remarkable decrease” and the “release of TNF-α” value was “remarkable decrease”.

Take “IGKEFKRIVQRIKDFLRNLVPRTERKDVT [LTP, hybrid peptide LL-37-TP5]”: in the data set on RAW264.7 cells, the “cytotoxic activity on RAW264.7 macrophage cells” value was “lowest cytotoxic activity” and the cell viability result is “greater than 100%”.
